From patent publication US20070254887A1, “Pharmaceutical Composition for Transdermal Administration of Perospirone” (priority 2004, published 2007)
Where a name gives a salt, the structure may show the parent alone.

Experiments:
[1] = tested on: antiserotonin activity; details: rat; cited from earlier work
[2] = Blood kinetics assessment: serum concentrations of perospirone and ID-15036 after transdermal or oral administration; format: in vivo, SD male rats; details: rat, oral administration, first measurement point (FIG. 5)
Procedure: 7-Week-old SD male rats were anesthetized and dehaired the abdomen. The rats were administered with transdermal formulations Formulations 1 to 8 in the sites of the dehaired abdomen and constantly collected blood, and serums were separated. The serums were partitioned and extracted with n-hexane-chloroform (7:3) and about 0.0005M aqueous sodium hydroxide solution, and the organic layers were evaporated and dried to solids. The resulting solids were dissolved, and serum concentrations of perospirone and its main metabolite ID-15036 were determined by quantification via reverse phase high performance liquid chromatography. […]
7-Week-old SD male rats were administered orally with 10 mg/kg of a solution of perospirone hydrochloride hydrate in a distilled water for injection in a concentration of 2 mg/ml, and the blood was collected with lapse of time. Serum concentrations of perospirone and the main metabolite ID-15036 were determined in the same manner as Experiment 3. […]

[3] = tested on: tryptamine-induced clonic seizures of forepaws; test: Antiserotonin activities in rat tryptamine-induced clonic seizures of forepaws model; format: in vivo, SD rats; details: for Efficacy (positive numbers/total numbers): placebo tape 1 cm × 1 cm
Procedure: Antiserotonin activities of the perospirone tape prepared in Example 14 (Formulation 10) and the perospirone tape prepared in Example 15 (Formulation 11) were assessed in a rat tryptamine-induced clonic seizures of forepaws model. The test was carried out according to the description of Jpn. J. Pharmacol. 53, 321-329 (1990).
Specifically, 7-week-old SD rats were dehaired the back on the day before the test, the tapes were patched on the back, and further water was administered orally in an amount of 5 ml/Kg. After the patching of tapes, a tryptamine hydrochloride was administered via tail veins in a dose of 40 mg/Kg at predetermined times as assessment times, and appearance of a clonic seizures of forepaws was observed.
7-Week-old SD rats were dehaired the back on the day before the test, patched with the placebo tape (Reference Formulation 1) containing no perospirone prepared in Reference Example 1 on the back, and administered orally perospirone hydrochloride hydrate in a dose of 3 mg/Kg or 0.5 mg/Kg. After administrations, a tryptamine hydrochloride was administered via tail veins in a dose of 40 mg/Kg at predetermined times as assessment times. An inhibitory effect of a tryptamine-induced behavior was determined in the same manner as Experiment 1.

[4] = tested on: apomorphine-induced stereotypy; test: Antidopaminergic activities in rat apomorphine-induced stereotypy model; format: in vivo, SD rats; details: for Efficacy (positive numbers/total numbers): placebo tape 1 cm × 1 cm
Procedure: […]. The test was carried out according to the description of Jpn. J. Pharmacol. 53, 321-329 (1990).
Specifically, 7-week-old SD rats were dehaired the back on the day before the test, patched the tapes on the back, and further water was administered orally in an amount 5 ml/Kg. After the patching, an apomorphine hydrochloride was administered via tail veins in a dose of 1.25 mg/Kg at predetermined times as assessment times, and stereotypy was observed.
7-Week-old SD rats were dehaired the back on the day before the test, patched the placebo tape (Reference Formulation 1) containing no perospirone prepared in Reference Example 1 on the back, and administered orally perospirone hydrochloride hydrate in a dose of 10 mg/Kg or 2 mg/Kg. Thereafter, an apomorphine hydrochloride was administered via tail veins in a dose of 1.25 mg/Kg at predetermined times as assessment times. An inhibitory effect of an apomorphine-induced behavior was determined in the same manner as Experiment 2.

O=C1C2CCCCC2(O)C(=O)N1CCCCN1CCN(c2nsc3ccccc23)CC1 (centres unmarked) [ID-15036]
antiserotonin activity compared to perospirone [1]: about ⅛

O=C1[C@H]2CCCC[C@H]2C(=O)N1CCCCN1CCN(c2nsc3ccccc23)CC1 [perospirone hydrochloride hydrate]
time of maximum serum concentrations after administration [2]: 30 min | Efficacy (positive numbers/total numbers) ([3]; oral 0.5 mg/Kg, 1 hour after administration): 0/5 | Efficacy (positive numbers/total numbers) ([3]; oral 3 mg/Kg, 1 hour after administration): 3/5 | Efficacy (positive numbers/total numbers) ([3]; oral 3 mg/Kg, 10 hours after administration): 0/7 | Efficacy (positive numbers/total numbers) ([4]; oral 2 mg/Kg, 1 hour after administration): 2/5 | Efficacy (positive numbers/total numbers) ([4]; oral 10 mg/Kg, 1 hour after administration): 5/5 | Efficacy (positive numbers/total numbers) ([4]; oral 10 mg/Kg, 10 hours after administration): 4/5 | Efficacy (positive numbers/total numbers) ([4]; oral 10 mg/Kg, 48 hours after administration): 0/5

O=C1[C@H]2CCCC[C@H]2C(=O)N1CCCCN1CCN(c2nsc3ccccc23)CC1 [perospirone, cis-N-[4-[4-(1,2-benzisothiazol-3-yl)-1-piperazinyl]butyl]cyclohexane-1,2-dicarboximide]
antiserotonin activities ([3]; oral administration, group of 3 mg/Kg): antiserotonin activities could not be recognized 10 hours after administration | antidopaminergic activities ([4]; oral administration): showed antidopaminergic activities 1 and 10 hours after administration but not 48 hours after administration
